Measured values from patent US20040101916A1, “Treatment of liver diseases” (priority 2002, published 2004).

Tests used:
GADD45β [1] = experiment: Northern blot of GADD45β expression after SAMe treatment in CL-48 normal liver cells; assay type: cell-based; details: CL-48 cells, 0, 1.0 mM, 2.0 mM SAMe, 72 hours
Procedure: (§1) CL-48 and HepG2 cells were treated with 0, 1.0 mM, and 2.0 mM SAMe. After 72 hours of treatment, Northern blot was performed to analyze the expression of GADD45β, using 18S RNA as an internal loading control.

GADD45β [2] = experiment: Northern blot of GADD45β expression after SAMe treatment in HepG2 cells; assay type: cell-based, human
Procedure: as §1
(§2) Expression of GADD45β after SAMe treatment under different p53 backgrounds was examined by Northern blot.

GADD45β [3] = experiment: Northern blot of GADD45β expression after SAMe treatment in Hep3B (p53 null); assay type: cell-based, human
From the text: as §2

[4] = test system: CCAAT/NF-Y boxes of the GADD45β promoter region; experiment: Gel retardation / super-shift assay, nuclear proteins of CL-48 cells on CCAAT/NF-Y boxes of the GADD45β promoter; assay type: cell-based; details: CL-48 nuclear proteins
Procedure: End-labeled oligonucleotides corresponding to the CCAAT/NF-Y boxes of the GADD45β promoter region were incubated with the extracted nuclear proteins, and the binding complexes were then separated on a 6% retardation gel. Protein binding sites on the GADD45β promoter Pα region were identified using unlabeled oligonucleotide competitors and NF-Y antibodies.

[5] = test system: NF-κB box of the GADD45β promoter region; experiment: Gel retardation assay, nuclear proteins of CL-48 cells on NF-κB box of the GADD45β promoter; assay type: cell-based; details: CL-48 nuclear proteins, 48 hours after 2.0 mM SAMe or 200 mM alcohol, compared to non-treated control cells
Procedure: Nuclear proteins were extracted as mentioned above. End-labeled oligonucleotides corresponding to the NF-κB box of the GADD45β promoter region were incubated with the extracted nuclear proteins, and the binding complexes were then separated on a 6% retardation gel.

GADD45α = details: HepG2 clone, Northern blot
Procedure: (§3) Expression of GADD45α and GADD45β after alcohol treatment was determined by Northern blot in HepG2 clone.

GADD45β [6] = details: HepG2 clone, Northern blot
Procedure: as §3

SMILES	induction of GADD45β expression (GADD45β [1])	expression of GADD45β after SAMe treatment (GADD45β [2]; HepG2 (p53 wild type), different dose ranges)	induction of GADD45β expression (GADD45β [2]; HepG2 cells, 0, 1.0 mM, 2.0 mM SAMe, 72 hours)	expression of GADD45β after SAMe treatment (GADD45β [3])	amount of major protein-binding band on CCAAT/NF-Y oligonucleotides ([4]; 48 hours after 2.0 mM SAMe, compared to non-treated controls)	super-shift of binding complex with NF-Y antibodies ([4]; SAMe-treated samples)	amount of binding complexes on NF-κB box oligonucleotides [5]	expression of GADD45α after alcohol treatment (GADD45α)	expression of GADD45β after alcohol treatment (GADD45β [6])
C[S+](CC[C@H](N)C(=O)O)C[C@H]1O[C@@H](n2cnc3c(N)ncnc32)[C@H](O)[C@@H]1O (stereo partly shown) [SAMe, S-Adenosylmethionine]	induced by a low dose of SAMe in CL-48 cells, and the induction reaches plateau at a higher dose of SAMe	up-regulated	the induction remains dose-dependent	failed to be induced	amount of a major band decreased	the binding complex is shifted	decreased amount of one binding complex and an increased amount of another binding complex		
CCO [alcohol]							decreased amount of one binding complex and an increased amount of another binding complex	increases in a dose-dependent manner	does not change
